Assays:
[1] = target: T1, Flt-1 VEGF receptor tyrosine kinase (Homo sapiens, UniProt P17948); assay: Test for activity against Flt-1 VEGF receptor tyrosine kinase activity; assay type: biochemical; details: kinase domain of Flt-1, poly(Glu,Tyr) 4:1, 8 μM [33P]-ATP, 15 minutes at room temperature
T1 construct: 10 ng of the kinase domain of Flt-1
T1 sequence (P17948 827-1158 limits assumed): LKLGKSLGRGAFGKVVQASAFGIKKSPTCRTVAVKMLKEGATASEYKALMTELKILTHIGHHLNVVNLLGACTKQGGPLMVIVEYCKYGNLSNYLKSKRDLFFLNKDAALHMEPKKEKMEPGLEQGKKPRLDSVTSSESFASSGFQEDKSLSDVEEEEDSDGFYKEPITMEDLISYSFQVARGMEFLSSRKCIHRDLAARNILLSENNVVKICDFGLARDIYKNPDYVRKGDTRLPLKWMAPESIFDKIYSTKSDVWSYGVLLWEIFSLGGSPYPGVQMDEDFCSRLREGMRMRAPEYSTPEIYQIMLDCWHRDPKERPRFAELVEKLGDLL
Protocol: Test for activity against VEGF receptor tyrosine kinase activity: The test is carried out using Flt-1 VEGF receptor tyrosine kinase. In detail, the procedure is as follows: 30 μl of kinase solution (10 ng of the kinase domain of Flt-1, Shibuya et al., Oncogene 5, 519-524 (1990)) in 20 mM Tris-HCl pH 7.6, 3 mM manganese dichloride (MnCl2), 3 mM magnesium chloride (MgCl2) and 3 μg/ml of poly(Glu,Tyr) 4:1 (Sigma, Buchs, Switzerland), 8 μM [^33P]-ATP (0.2 μCi/batch), 1% dimethyl sulfoxide and from 0 to 50 μM of the test compound are incubated together for 15 minutes at room temperature. The reaction is then terminated by addition of 10 μl of 0.25M ethylenediamine tetraacetate (EDTA) pH 7. An aliquot of 20 μl is connected to a vacuum using a multichannel dispenser (LAB SYSTEMS, USA) on a PVDF (=polyvinyl difluoride) Immobilon P membrane (Millipore, USA), which is incorporated in a Millipore Microtiter filter manifold. When the liquid has been removed completely, the membrane is incubated 4 times in succession, in each case for 10 minutes, with shaking, in a washing bath containing 0.5% phosphoric acid (H3PO4), and is then mounted in a Hewlett Packard TopCount Manifold and, after addition of 10 μl of Microscint® (β-scintillation counter fluid; Packard, USA), the radioactivity is, measured. IC50 values are determined by linear regression analysis of the percentage values for the inhibition of each compound at three concentrations (generally 0.01, 0.1 and 1 μM). The inhibition values (IC50 with half-maximum inhibition as compared with a control without inhibitor of formula I) found are especially in the range of from 10 nmol/liter to 100 μmol/liter, more especially from 20 to 2000 nmol/liter.
The test is carried out using Fit-1 VEGF receptor tyrosine kinase, as described above. The IC50 values obtained are shown below, insofar as they were calculated accurately: […]

IC50 [1] [nM]	melting point [°C]	SMILES
> 1000	–	FC(F)(F)c1cc(Nc2ncc(Cc3ccncc3)c3ccccc23)ccc1Cl [Example 4]
> 1000	–	FC(F)(F)c1cc(Br)cc(Nc2ncc(Cc3ccncc3)c3ccccc23)c1 [Example 3]

The remaining lines, values behind:

SMILES	IC50 [1] [nM]	melting point [°C]
Clc1ccc(Nc2ncc(Cc3ccncc3)c3ccccc23)cc1 [Example 2]	346	–
Clc1cccc(CNc2ncc(Cc3ccncc3)c3ccccc23)c1 [Example 132, 1-(3-Chlorobenzylamino)-4-[(pyridin-4-yl)-methyl]-isoquinoline]	–	141 to 142
Cc1cccc(Nc2ncc(Cc3ccncc3)c3ccccc23)c1 [Example 5]	344	–
Cc1cc(C)cc(Nc2ncc(Cc3ccncc3)c3ccccc23)c1 [Example 1, 1-(3,5-Dimethylanilino)-4-[(pyridin-4-yl)-methyl]-isoquinoline]	802	156 to 158

Source: US6608071B2, “Isoquinoline derivatives with angiogenesis inhibiting activity” (Novartis AG, priority 1998, dated 2003)
